Experimental data from patent US10730833B2, “Synthesis of diindolylmethanes and indolo[3,2-b]carbazoles, compounds formed thereby, and pharmaceutical compositions containing them” (Wisconsin Alumni Research Foundation, priority 2014, dated 2020).

The compounds below were run against AhR (Homo sapiens (Human), UniProt P35869) (assay: ethoxyresorufin-O-deethylase (EROD) assay, AhR activation in HepG2 cells).
Format: cell-based
Description: The human Hep G2 cell line from the Small Molecule Screening and Synthesis Facility (UWCCC, Madison, Wis.) and was maintained in DMEM medium supplemented with 10% FBS. Cells were incubated at 37° C. in a humidified atmosphere supplemented with 5% CO2.
Preparation of cells: Cells were cleaved from T75 flasks with 0.05% trypsin. The cells were then collected by spinning at 1 g for 4 min. Excess media containing trypsin was removed from the pellet, which was then re-suspended in growth media. The cells were then counted using a hemocytometer. Cells were plated in sterile 96-well clear bottom black culture plates at a density of 20,000 cells per well in 0.1 mL of media. The cells were then incubated for 24 h at 37° C. in a humidified atmosphere supplemented with 5% CO2.
The ethoxyresorufin-O-deethylase (EROD) assay was performed on cell cultures of human Hep G2 cells. Briefly, 24 h after plating, cells in 96-well plates were treated with AhR agonists and allowed to incubate for 24 h. Each well was then rinsed with 200 uL of PBS buffer twice. To each well was then added 100 uL of 150 nM solution of 7-ethoxyresurufin and allowed to incubate for 2 h. Fluorescence measurements were obtained with a Safire II micro plate reader with excitation at 520 nm with a 25 nm bandwidth and emission at 595 nm with a 20 nm bandwidth.
The bioactivity of malassezin analogs was then investigated. The well-documented ethoxyresorufin-O-deethylase (EROD) assay was used to determine the EC50 values of the compounds towards AhR activation in HepG2 cells. Donato, M. T.; Gomezlechon, M. J.; Castell, J. V. Anal. Biochem. 1993, 213, 29; van Tonder, J. J., University of Pretoria Z.A., Thesis, 2011. This assay measures the induction of cytochrome P450-1A1 (CYP1A1), which is a major outcome of AhR activation. Whyte, J. J.; Jung, R. E.; Schmitt, C. J.; Tillitt, D. E. Crit. Rev. Toxicol. 2000, 30, 347. CYP1A1 selectively converts 7-ethoxyresorufin to the fluorescent product resorufin.

Sequence of AhR (P35869 11-848): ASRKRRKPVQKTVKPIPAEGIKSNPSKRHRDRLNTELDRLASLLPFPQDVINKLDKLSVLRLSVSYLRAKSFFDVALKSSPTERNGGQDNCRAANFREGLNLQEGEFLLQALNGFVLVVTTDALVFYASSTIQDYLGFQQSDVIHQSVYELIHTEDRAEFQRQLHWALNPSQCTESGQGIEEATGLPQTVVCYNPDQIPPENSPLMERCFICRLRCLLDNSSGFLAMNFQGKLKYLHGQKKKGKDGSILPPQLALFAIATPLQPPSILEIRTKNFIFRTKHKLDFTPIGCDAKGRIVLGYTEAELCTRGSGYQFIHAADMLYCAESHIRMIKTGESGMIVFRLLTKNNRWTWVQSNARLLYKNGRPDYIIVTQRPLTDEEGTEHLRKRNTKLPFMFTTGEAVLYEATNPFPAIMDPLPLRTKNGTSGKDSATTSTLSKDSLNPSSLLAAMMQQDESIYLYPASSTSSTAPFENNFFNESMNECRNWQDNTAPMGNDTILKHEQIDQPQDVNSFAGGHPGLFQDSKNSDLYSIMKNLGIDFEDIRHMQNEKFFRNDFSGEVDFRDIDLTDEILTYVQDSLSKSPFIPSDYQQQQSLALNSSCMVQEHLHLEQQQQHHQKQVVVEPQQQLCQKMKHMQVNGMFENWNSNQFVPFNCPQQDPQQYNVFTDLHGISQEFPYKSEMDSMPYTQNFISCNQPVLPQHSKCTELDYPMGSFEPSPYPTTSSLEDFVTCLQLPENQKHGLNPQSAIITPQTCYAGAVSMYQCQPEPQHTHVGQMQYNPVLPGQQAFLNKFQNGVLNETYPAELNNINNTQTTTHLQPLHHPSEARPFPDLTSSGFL

| SMILES | AhR potency (EC50) compared with malassezin, the positive control |
| --- | --- |
| COc1ccc2[nH]cc(Cc3[nH]c4ccccc4c3C=O)c2c1 [Compound 11c] | behaved similarly to malassezin |
| Cn1cc(Cc2[nH]c3ccccc3c2C=O)c2ccccc21 [Compound 11d] | about five times lower than that of malassezin |
| O=Cc1c(Cc2c[nH]c3ccc(Cl)cc23)[nH]c2ccccc12 [Compound 11a] | more potent than the positive control |
| O=Cc1c(Cc2c[nH]c3c(Cl)cccc23)[nH]c2ccccc12 [Compound 11b] | slightly weaker agonist |
